# Tests used:
# mAb1 [1] = assay: Ambient light exposure of 50 mg/mL mAb1 formulations containing L-Trp (Amplex assay, RP-HPLC); assay type: physicochemical, human
# Source text: While confirming the photosensitivity of free L-Trp under ICH light conditions, the effect of ambient light that was typically seen in laboratories was studied. Measurements using a DLM1 digital light meter in various labs indicated an average of 300 lux on a lab benchtop (with white fluorescent lighting), an average of 3000 lux in a laminar flow hood (with white fluorescent lighting) and about 10000 lux for a windowsill exposed to southeast sunlight. […] Peroxide production increased with both luminosity (300, 3000, and 10000 lux) and time (1, 3, and 7 days). […] These levels of light exposure and time were determined to be pharmaceutically relevant for drug substance handling under ambient light and temperature before fill/finish operations and potentially while inspecting drug product vials.
# [2] = Photosensitivity screening assay (H2O2 by Amplex Ultra Red after light exposure); assay type: physicochemical; details: 1 mM in 20 mM histidine acetate pH 5.5, four hours of light at 250 W/m^2
# Description: As a screening tool, antioxidant candidates were exposed to light for four hours at 250 W/m^2 and the resulting H2O2 formation was quantified by the Amplexassay. Specifically, antioxidants were prepared to 1 mM in 20 mM histidine acetate buffer at pH 5.5. The 1 mM antioxidant solutions were aliquoted into glass vials (2 mL/glass vial) and exposed to four hours of light at 250 W/m^2 in an Atlas SunTest CPS+ Xenon Test Instrument (Chicago, Ill.). Total UV dose was 90 watt-hours/square meter and total visible dose was 0.22 million lux hours over the 4-hour period. Control vials were wrapped in aluminum foil and treated similarly. The amount of hydrogen peroxide generated after exposure to light was measured using the Amplex® Ultra Red Assay (Invitrogen, Carlsbad, Calif.) following the manufacturer's recommended procedure. On addition of horseradish peroxidase (HRP), the dye reacted 1:1 stoichiometrically with H2O2, resulting in the production of fluorescent oxidation product resorufin. In this study, fluorescence readings were obtained using a Spectra Max M2 Micro-plate Reader (Molecular Devices, Sunnyvale, Calif.) with excitation and emission set at 560 nm and 590 nm, respectively. Final H2O2 concentrations were determined using a standard curve ranging from 0 μm to 20 μm.
# [3] = Cyclic voltammetry (CV) screening assay, oxidation potential; assay type: physicochemical
# Description: The oxidation/reduction characteristics of the compounds were investigated. Several compounds, including L-Trp and derivatives, were evaluated for the protection of Trp oxidation in proteins using cyclic voltammetry (CV) and rank ordered based on their oxidation potentials (Table 2). Specifically, the candidate antioxidants were dissolved in deionized water and then added to a 0.2 M lithium perchlorate electrolyte solution. […] Solutions were scanned from −0.10 V to +1.50 V at a scan rate of either 100 or 500 mV/sec. The analytical cell was purged for four minutes with nitrogen before scanning of each antioxidant solution. The input was a linear scan of the potential of a working electrode, and the output was measurement of the resulting current. […] Redox reactions were characterized by sharp increases or decreases in current (peaks). The potential at which an oxidation reaction occurred was referred to as the anodic peak potential (or oxidation potential), and the potential at which a reduction occurred was referred to as is the cathodic peak (or reduction) potential.
# mAb1 [4] = assay: mAb1 light stress study (16 hours at 250 W/m^2), RP-HPLC; assay type: physicochemical, human; details: 16 hours of light at 250 W/m^2
# Description: The fragments were reduced with DTT, and then separated and identified via Liquid Chromatography-Mass Spectrometry (LC-MS). […] Comparison of area integrated under the oxidized and native peaks was used to quantify HC Fab and Fc oxidation. […] By using the papain digest RP-HPLC method in the present study it was possible to investigate Trp residue oxidation by quantifying HC Fab oxidation, and Met residue oxidation by quantifying HC Fc oxidation.
# Antioxidants were added at 1 mM. Glass vials containing these formulations were exposed to 250 W/m^2 light in an Atlas SunTest CPS+ Xenon Test Instrument (Chicago, Ill.). Control vials were wrapped in aluminum foil and treated similarly. After light exposure, solutions were prepared for analysis by reverse-phase HPLC as described above.
# mAb1 [5] = assay: mAb1 Fenton stress study (H2O2 + Fe), RP-HPLC; assay type: physicochemical, human; details: 10 ppm H2O2 and 0.2 mM Fe(III), 40° C. for 3 hours; antioxidant 1 mM
# Description: Antioxidants were added at a final concentration of 1 mM. […] After incubation, each reaction was quenched by addition of 100 mM L-Met and then prepared for analysis by reverse-phase HPLC as described above.
# The Fenton reaction, using a mixture of H2O2 and Fe ions, generates oxidation through a metal catalyzed, hydroxyl radical reaction (Prousek et al., Pure and Applied Chemistry 79(12):2325-2338 (2007)). This reaction generated Fab, i.e. tryptophan, oxidation in mAb1. The reaction was also carried out in the presence of select antioxidants that were useful against both AAPH and light induced oxidation as reported above. Data related to the antioxidant properties against Fenton mediated reaction were analyzed using the RP-HPLC assay as described above. The Fenton reaction used 10 ppm of H2O2 and 0.2 mM of Fe(III). The reaction was incubated at 40° C. for 3 hours, quenched with 100 mM L-Met and analyzed using RP-HPLC after papain digest. All samples were the average of three separate vials, and mAb1 control (Ref Mat) was one vial with five independent injections on the HPLC. […] In regards to protection against Fc oxidation, the tested excipients (other than salicylic acid) performed slightly better than L-Trp.
structure (smiles),measurement,setting,value
"N[C@@H](Cc1c[nH]c2ccccc12)C(=O)O [L-Trp, L-tryptophan]","Heavy chain Fab oxidation (W53) under ambient light, in words","mAb1 [1]; 50 mg/mL mAb1 with L-Trp, increasing luminosity",increased heavy chain Fab oxidation
same,% Fc oxidation in mAb1,"mAb1 [1]; 300 lux, 50 mg/mL mAb1 with L-Trp",5%
same,% Fc oxidation in mAb1,"mAb1 [1]; 10000 lux, 50 mg/mL mAb1 with L-Trp",40%
same,Hydrogen peroxide production under ambient light,"mAb1 [1]; L-Trp in formulation buffers containing 50 mg/mL mAb1, 300, 3000, 10000 lux, 1, 3, 7 days",micromolar range
same,(H2O2 produced by Compound)/(H2O2 produced by L-Trp),[2],1
same,Oxidation Potential,"[3]; anodic peak potential, glassy carbon working electrode, 0.2M lithium perchlorate",0.938 V vs Ag/AgCl
same,Oxidation Potential,"[3]; cyclic voltammetry, 0.2 M lithium perchlorate",0.938 V vs Ag/AgCl
same,Fc oxidation as multiple of the control level,mAb1 [4]; 1 mM L-Trp,7 times
same,Fab oxidation increase over the control level (mAb1 Ref Mat),mAb1 [4]; excipient 1 mM or none,over 11 fold
same,Protection of Fab oxidation with respect to the no excipient case,mAb1 [5],about 25%

# — patent US11596620B2, “Formulations with reduced oxidation” (Genentech, Inc., priority 2013, dated 2023)
